Experimental data reported in US10093623B2, “Cyclic amides as MetAP-2 inhibitors” (MERCK PATENT GmbH, priority 2012, dated 2018).

Biological target: MetAP-2 (Homo sapiens, UniProt P50579)
Test: MetAP-2 activity measurement (coupled enzymatic reactions, Met-Arg-Ser substrate, dianisidine detection at 450 nm)
Format: biochemical
Settings: Inhibition of MetAP-2; read-out: IC50 enzyme
In short: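 Coupled continuous assay with Met-Arg-Ser tripeptide substrate: released methionine oxidised by L-amino acid oxidase to give H2O2, which peroxidase uses to oxidise dianisidine, followed at 450 nm. Activity taken as slope of absorbance versus time over the visually linear region; dianisidine extinction coefficient converts to mol Met per time.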

Chain of MetAP-2 (P50579 whole entry, species assumed): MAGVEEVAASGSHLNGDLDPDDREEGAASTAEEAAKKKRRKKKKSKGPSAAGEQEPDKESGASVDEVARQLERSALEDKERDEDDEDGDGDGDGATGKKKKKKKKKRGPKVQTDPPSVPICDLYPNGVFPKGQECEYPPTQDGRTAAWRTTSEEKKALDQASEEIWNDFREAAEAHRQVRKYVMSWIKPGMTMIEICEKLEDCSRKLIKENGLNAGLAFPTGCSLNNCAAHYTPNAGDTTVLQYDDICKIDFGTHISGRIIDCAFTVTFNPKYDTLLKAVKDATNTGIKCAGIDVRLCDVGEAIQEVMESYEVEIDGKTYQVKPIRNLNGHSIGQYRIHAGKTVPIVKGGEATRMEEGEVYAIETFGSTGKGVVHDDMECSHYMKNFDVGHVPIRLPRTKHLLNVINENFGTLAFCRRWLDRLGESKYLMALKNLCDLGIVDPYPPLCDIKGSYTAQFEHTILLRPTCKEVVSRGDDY

SMILES	IC50
CCNC(=O)c1cc2cc(N3CC[C@@](O)(C(=O)NCc4cc(F)cc(Cl)c4)C3=O)ccc2o1 [A195, N-(3-Chloro-5-fluorobenzyl)-(R)-1-(2-ethylcarbamoylbenzofuran-5-yl)-3-hydroxy-2-oxopyrrolidine-3-carboxamide]	> 10000 nM
O=C1COc2cc(N3CC[C@@](O)(C(=O)NCc4cc(F)cc(Cl)c4)C3=O)ccc2N1 [A198, N-(3-Chloro-5-fluorobenzyl)-(R)-3-hydroxy-2-oxo-1-(3-oxo-3,4-dihydro-2H-benzo-1,4-oxazin-7-yl)pyrrolidine-3-carboxamide]	> 10000 nM
CCOC(=O)C1CCCC(N2CCC(O)(C(=O)NCc3cc(F)cc(Cl)c3)C2=O)C1 (stereo not drawn) [A202, Ethyl 3-[3-(3-chloro-5-fluorobenzylcarbamoyl)-3-hydroxy-2-oxopyrrolidin-1-yl]-cyclohexanecarboxylate]	1000 to 10000 nM
O=C(O)CN1CCC(O)(C(=O)NCc2cc(F)cc(Cl)c2)C1=O (stereo not drawn) [A203, [3-(3-Chloro-5-fluorobenzylcarbamoyl)-3-hydroxy-2-oxopyrrolidin-1-yl]-acetic acid]	> 10000 nM
NC(=O)c1cc(N2CCC(O)(C(=O)NCc3cc(F)cc(Cl)c3)C2=O)cc(C(F)(F)F)c1 (stereo not drawn) [A204, N-(3-Chloro-5-fluorobenzyl)-1-(3-carbamoyl-5-trifluoromethyl-phenyl)-3-hydroxy-2-oxo-pyrrolidine-3-carboxamide]	1000 to 10000 nM
CNC(=O)CN1CCC(O)(C(=O)NCc2cc(F)cc(Cl)c2)C1=O (stereo not drawn) [A208, N-(3-Chloro-5-fluorobenzyl)-3-hydroxy-1-methylcarbamoyl-methyl-2-oxopyrrolidine-3-carboxamide]	1000 to 10000 nM
CC(C)(C)OC(=O)N1CC(CN2CCC(O)(C(=O)NCc3cc(F)cc(Cl)c3)C2=O)C1 (stereo not drawn) [A213, tert-Butyl 3-[3-(3-chloro-5-fluorobenzylcarbamoyl)-3-hydroxy-2-oxopyrrolidin-1-yl-methyl]-azetidine-1-carboxylate]	1000 to 10000 nM
O=C(NCc1cc(F)cc(Cl)c1)C1(O)CCN(CC2CNC2)C1=O (stereo not drawn) [A218, N-(3-Chloro-5-fluorobenzyl)-1-azetidin-3-ylmethyl-3-hydroxy-2-oxopyrrolidine-3-carboxamide]	> 10000 nM
O=C(NCc1cc(F)cc(Cl)c1)C1(O)CCN(CCc2c[nH]c3ccc(F)cc23)C1=O (stereo not drawn) [A219, N-(3-Chloro-5-fluorobenzyl)-1-[2-(5-fluoro-1H-indol-3-yl)ethyl]-3-hydroxy-2-oxopyrrolidine-3-carboxamide]	10 to 1000 nM
O=C(NCc1cc(F)cc(Cl)c1)C1(O)CCN(CC2CCOCC2)C1=O (stereo not drawn) [A220, N-(3-Chloro-5-fluorobenzyl)-3-hydroxy-2-oxo-1-(tetrahydro-pyran-4-ylmethyl)pyrrolidine-3-carboxamide]	1000 to 10000 nM
O=C1CCc2cc(N3CC[C@](O)(C(=O)NCCc4cc(F)cc(F)c4)C3=O)ccc2N1 [A221, N-[2-(3,5-Difluorophenyl)ethyl]-(S)-3-hydroxy-2-oxo-1-(2-oxo-1,2,3,4-tetrahydroquinolin-6-yl)-pyrrolidine-3-carboxamide]	10 to 1000 nM
N#Cc1c[nH]c2ccc(N3CC[C@](O)(C(=O)NCc4cc(F)cc(Cl)c4)C3=O)cc12 [A222, N-(3-Chloro-5-fluorobenzyl)-(S)-1-(3-cyano-1H-indol-5-yl)-3-hydroxy-2-oxopyrrolidine-3-carboxamide]	10 to 1000 nM
O=C1CCc2cc(N3CC[C@@](O)(C(=O)NCCc4cc(F)cc(F)c4)C3=O)ccc2N1 [A223, N-[2-(3,5-Difluorophenyl)ethyl]-(R)-3-hydroxy-2-oxo-1-(2-oxo-1,2,3,4-tetrahydroquinolin-6-yl)-pyrrolidine-3-carboxamide]	> 10000 nM
N#Cc1c[nH]c2ccc(N3CC[C@@](O)(C(=O)NCc4cc(F)cc(Cl)c4)C3=O)cc12 [A224, N-(3-Chloro-5-fluorobenzyl)-(R)-1-(3-cyano-1H-indol-5-yl)-3-hydroxy-2-oxopyrrolidine-3-carboxamide]	1000 to 10000 nM
O=C(NCc1cc(F)cc(Cl)c1)C1(O)CCN(C[C@H]2CCCO2)C1=O (stereo partly drawn) [A225, N-(3-Chloro-5-fluorobenzyl)-3-hydroxy-2-oxo-1-[(R)-1-(tetrahydrofuran-2-yl)methyl]-pyrrolidine-3-carboxamide]	1000 to 10000 nM
O=C(NCc1cc(F)cc(Cl)c1)C1(O)CCN(C[C@H]2CC[C@@H](C(=O)O)CC2)C1=O (stereo partly drawn) [A226, 4-[3-(3-Chloro-5-fluorobenzyl-carbamoyl)-3-hydroxy-2-oxo-pyrrolidin-1-ylmethyl]cyclo-hexanecarboxylic acid]	1000 to 10000 nM
O=C(NCc1cc(F)cc(Cl)c1)C1(O)CCN(C[C@H]2CC[C@H](C(=O)O)CC2)C1=O (stereo partly drawn) [A227, 4-[3-(3-Chloro-5-fluorobenzyl-carbamoyl)-3-hydroxy-2-oxo-pyrrolidin-1-ylmethyl]cyclo-hexanecarboxylic acid]	1000 to 10000 nM
CC(C)(C)OC(=O)N1C[C@@H]2[C@H](C1)[C@H]2N1CCC(O)(C(=O)NCc2cc(F)cc(Cl)c2)C1=O (stereo partly drawn) [A228, tert-Butyl (1S,5R,6S)-6-[3-(3-chloro-5-fluorobenzyl-carbamoyl)-3-hydroxy-2-oxo-pyrrolidin-1-yl]-3-azabicyclo-[3.1.0]hexane-3-carboxylate]	1000 to 10000 nM
O=C(NCc1cc(F)cc(Cl)c1)C1(O)CCN([C@H]2[C@@H]3CNC[C@@H]32)C1=O (stereo partly drawn) [A229, N-(3-Chloro-5-fluorobenzyl)-1-(1S,5R,6S)-3-azabicyclo-[3.1.0]hex-6-yl-3-hydroxy-2-oxo-pyrrolidine-3-carboxamide]	> 10000 nM
CCS(=O)(=O)N1C[C@@H]2[C@H](C1)[C@H]2N1CCC(O)(C(=O)NCc2cc(F)cc(Cl)c2)C1=O (stereo partly drawn) [A230, N-(3-Chloro-5-fluorobenzyl)-1-((1S,5R,6S)-3-ethanesulfonyl-3-azabicyclo[3.1.0]hex-6-yl)-3-hydroxy-2-oxopyrrolidine-3-carboxamide]	1000 to 10000 nM
CC(=O)N1C[C@@H]2[C@H](C1)[C@H]2N1CCC(O)(C(=O)NCc2cc(F)cc(Cl)c2)C1=O (stereo partly drawn) [A231, N-(3-Chloro-5-fluorobenzyl)-1-((1S,5R,6S)-3-acetyl-3-aza-bicyclo[3.1.0]hex-6-yl)-3-hydroxy-2-oxopyrrolidine-3-carboxamide]	1000 to 10000 nM
Cn1c(CN2CCC(O)(C(=O)NCc3cc(F)cc(Cl)c3)C2=O)nc2ccccc21 (stereo not drawn) [A232, N-(3-Chloro-5-fluorobenzyl)-3-hydroxy-1-(1-methyl-1H-benzimidazol-2-ylmethyl)-2-oxo-pyrrolidine-3-carboxamide]	1000 to 10000 nM
O=C(NCc1cc(F)cc(Cl)c1)C1(O)CCN([C@H]2CCNC2)C1=O (stereo partly drawn) [A233, N-(3-Chloro-5-fluorobenzyl)-(S)-3-hydroxy-2-oxo-[1,3′]bipyrrolidinyl-3-carboxamide]	> 10000 nM

Continued, values first:

IC50	SMILES
10 to 1000 nM	O=C1CCc2cc(N3CCC(O)(C(=O)NCc4cccc(F)c4Cl)C3=O)ccc2N1 (stereo not drawn) [A196, N-(2-Chloro-3-fluorobenzyl)-3-hydroxy-2-oxo-1-(2-oxo-1,2,3,4-tetrahydroquinolin-6-yl)-pyrrolidine-3-carboxamide]
10 to 1000 nM	O=C1COc2cc(N3CC[C@](O)(C(=O)NCc4cc(F)cc(Cl)c4)C3=O)ccc2N1 [A197, N-(3-Chloro-5-fluorobenzyl)-(S)-3-hydroxy-2-oxo-1-(3-oxo-3,4-dihydro-2H-benzo-1,4-oxazin-7-yl)pyrrolidine-3-carboxamide]
10 to 1000 nM	O=C1CCc2cc(N3CCC(O)(C(=O)NCCc4cc(F)cc(F)c4)C3=O)ccc2N1 (stereo not drawn) [A199, N-[2-(3,5-Difluorophenyl)ethyl]-3-hydroxy-2-oxo-1-(2-oxo-1,2,3,4-tetrahydroquinolin-6-yl)-pyrrolidine-3-carboxamide]
10 to 1000 nM	NC(=O)c1cccc(N2CCC(O)(C(=O)NCCc3cc(F)cc(F)c3)C2=O)c1 (stereo not drawn) [A201, N-[2-(3,5-Difluorophenyl)ethyl]-1-(3-carbamoylphenyl)-3-hydroxy-2-oxopyrrolidine-3-carboxamide]
10 to 1000 nM	CCOC(=O)c1cc2cc(N3CCC(O)(C(=O)NCc4cc(F)cc(Cl)c4)C3=O)ccc2[nH]1 (stereo not drawn) [A205, Ethyl 5-[3-(3-chloro-5-fluorobenzylcarbamoyl)-3-hydroxy-2-oxopyrrolidin-1-yl]-1H-indol-2-carboxylate]
10 to 1000 nM	O=C(NCc1cccc(F)c1Cl)C1(O)CCN(c2ccc3[nH]ccc3c2)C1=O (stereo not drawn) [A206, N-(2-Chloro-3-fluorobenzyl)-3-hydroxy-1-(1H-indol-5-yl)-2-oxo-pyrrolidine-3-carboxamide]
10 to 1000 nM	O=C(NCCc1cc(F)cc(F)c1)C1(O)CCN(c2ccc3[nH]ccc3c2)C1=O (stereo not drawn) [A207, N-[2-(3,5-Difluorophenyl)ethyl]-3-hydroxy-1-(1H-indol-5-yl)-2-oxopyrrolidine-3-carboxamide]
10 to 1000 nM	O=C(NCCc1ccccc1F)C1(O)CCN(c2ccc3[nH]ccc3c2)C1=O (stereo not drawn) [A210, N-[2-(2-Fluorophenyl)ethyl]-3-hydroxy-1-(1H-indol-5-yl)-2-oxo-pyrrolidine-3-carboxamide]
10 to 1000 nM	NC(=O)c1cc2cc(N3CCC(O)(C(=O)NCc4cc(F)cc(Cl)c4)C3=O)ccc2[nH]1 (stereo not drawn) [A211, 5-[3-(3-Chloro-5-fluorobenzylcarbamoyl)-3-hydroxy-2-oxopyrrolidin-1-yl]-1H-indole-2-carboxamide]
10 to 1000 nM	O=C(NCCc1cccc(F)c1)C1(O)CCN(c2ccc3[nH]ccc3c2)C1=O (stereo not drawn) [A212, N-[2-(3-Fluorophenyl)ethyl]-3-hydroxy-1-(1H-indol-5-yl)-2-oxo-pyrrolidine-3-carboxamide]
10 to 1000 nM	O=C1CCc2cc(N3CCC(O)(C(=O)NCc4cc(F)cc(Cl)c4)C3=O)cnc2N1 (stereo not drawn) [A214, N-(3-Chloro-5-fluorobenzyl)-3-hydroxy-2-oxo-1-(7-oxo-5,6,7,8-tetrahydro-1,8-naphthyridin-3-yl)pyrrolidine-3-carboxamide]
10 to 1000 nM	NC(=O)c1cncc(N2CCC(O)(C(=O)NCc3cc(F)cc(Cl)c3)C2=O)c1 (stereo not drawn) [A216, 5-[3-(3-Chloro-5-fluorobenzylcarbamoyl)-3-hydroxy-2-oxopyrrolidin-1-yl]-nicotinamide]
10 to 1000 nM	N#Cc1cc2cc(N3CCC(O)(C(=O)NCc4cc(F)cc(Cl)c4)C3=O)ccc2[nH]1 (stereo not drawn) [A217, N-(3-Chloro-5-fluorobenzyl)-1-(2-cyano-1H-indol-5-yl)-3-hydroxy-2-oxopyrrolidine-3-carboxamide]
